Assay results as given in PMC4579270, “Identification and Characterization of an Irreversible Inhibitor of CDK2” (Chemistry & Biology, 2015).
Read-outs that look alike come from different tables or passages of the source.

Tests used:
Experiment in all cases: Dundee kinase screen re-test (standard format and 4 hour pre-incubation)
Format in all cases: biochemical
ASK1 = molecular target: T1, ASK1 (Homo sapiens, UniProt Q99683); settings: ASK1, 0.5µM
T1 sequence (Q99683 1-1374): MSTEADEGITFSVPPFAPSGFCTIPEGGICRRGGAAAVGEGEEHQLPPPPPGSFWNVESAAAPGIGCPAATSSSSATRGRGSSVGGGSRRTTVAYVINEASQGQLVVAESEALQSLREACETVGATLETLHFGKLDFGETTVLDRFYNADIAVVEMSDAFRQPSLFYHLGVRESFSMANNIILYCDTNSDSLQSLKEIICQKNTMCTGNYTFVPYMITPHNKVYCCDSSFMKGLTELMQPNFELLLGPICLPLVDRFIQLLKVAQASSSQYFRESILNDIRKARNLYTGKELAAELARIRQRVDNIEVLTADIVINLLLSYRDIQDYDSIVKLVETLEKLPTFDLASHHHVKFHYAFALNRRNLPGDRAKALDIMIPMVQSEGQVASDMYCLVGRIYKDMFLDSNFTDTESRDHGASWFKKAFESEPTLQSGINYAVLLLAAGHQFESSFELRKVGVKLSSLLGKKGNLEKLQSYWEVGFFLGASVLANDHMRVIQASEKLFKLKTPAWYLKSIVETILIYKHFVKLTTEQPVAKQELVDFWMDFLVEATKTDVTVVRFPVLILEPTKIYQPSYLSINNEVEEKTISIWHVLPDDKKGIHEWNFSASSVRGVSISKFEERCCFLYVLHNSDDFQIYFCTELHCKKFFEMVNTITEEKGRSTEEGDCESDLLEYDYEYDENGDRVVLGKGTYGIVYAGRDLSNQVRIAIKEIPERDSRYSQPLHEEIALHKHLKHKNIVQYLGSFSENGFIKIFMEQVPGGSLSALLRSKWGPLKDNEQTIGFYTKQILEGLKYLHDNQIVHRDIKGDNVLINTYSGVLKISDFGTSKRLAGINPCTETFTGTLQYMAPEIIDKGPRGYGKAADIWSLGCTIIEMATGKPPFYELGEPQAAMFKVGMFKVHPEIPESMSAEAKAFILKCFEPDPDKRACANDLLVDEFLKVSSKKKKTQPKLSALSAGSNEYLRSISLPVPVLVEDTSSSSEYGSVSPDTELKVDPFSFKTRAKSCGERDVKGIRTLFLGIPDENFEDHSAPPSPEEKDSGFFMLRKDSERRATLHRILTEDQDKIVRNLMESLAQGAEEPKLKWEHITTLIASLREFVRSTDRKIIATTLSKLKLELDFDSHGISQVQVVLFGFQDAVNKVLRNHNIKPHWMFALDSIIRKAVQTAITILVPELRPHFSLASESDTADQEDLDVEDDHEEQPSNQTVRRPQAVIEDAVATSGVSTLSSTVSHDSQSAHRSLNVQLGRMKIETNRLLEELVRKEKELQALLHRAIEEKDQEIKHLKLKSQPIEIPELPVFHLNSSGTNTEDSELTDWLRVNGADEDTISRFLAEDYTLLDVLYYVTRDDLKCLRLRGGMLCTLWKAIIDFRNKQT
Method: (§1) Prior to determining its cellular activity, we carried out a screen to assess its selectivity against a panel of 131 protein kinases under conditions that would not distinguish between a reversible or irreversible mode of action. […] These 13 kinases and 29 additional kinases, selected for their known sensitivity to other inhibitors within the purine series, were then tested in a modified screening format in which the assay was repeated following a 4-hr pre-incubation (Table S3B). […] However, conformational flexibility around the active site may promote such an interaction with a residue from another part of the structure ([Martin et al., 2012]).
(§2) Table S3, Related to Figure 4. NCL-0006300 protein kinase selectivity. […]
(§3) Dundee protein kinase screen (Bain et al., 2007). […]
(§4) (B) Selected kinases were re-tested in the Dundee kinase screen against NU6300 at a single concentration of 0.5 µM both in the standard assay format and following a 4 hour pre-incubation in the presence of NU6300. Kinases which have very low activity after the 4 hour incubation so that results might not be wholly reliable are boxed in salmon. Kinases where the activity after a 4 hour pre-incubation is < 50% that in the standard assay format are highlighted in red.

CDK2-Cyclin A = CDK2-Cyclin A (Homo sapiens, UniProt P24941); settings: for remaining activity at 0.5 µM: CDK2/cyclin A
Method: as §1, §2, §3, §4

MLK1 = MLK1 (Homo sapiens, UniProt P80192); settings: MLK1, 0.5µM
Method: as §1, §2, §3, §4

TBK1 = molecular target: T2, TBK1 (Homo sapiens, UniProt Q9UHD2); settings: TBK1, 0.5µM
T2 sequence (Q9UHD2 1-729): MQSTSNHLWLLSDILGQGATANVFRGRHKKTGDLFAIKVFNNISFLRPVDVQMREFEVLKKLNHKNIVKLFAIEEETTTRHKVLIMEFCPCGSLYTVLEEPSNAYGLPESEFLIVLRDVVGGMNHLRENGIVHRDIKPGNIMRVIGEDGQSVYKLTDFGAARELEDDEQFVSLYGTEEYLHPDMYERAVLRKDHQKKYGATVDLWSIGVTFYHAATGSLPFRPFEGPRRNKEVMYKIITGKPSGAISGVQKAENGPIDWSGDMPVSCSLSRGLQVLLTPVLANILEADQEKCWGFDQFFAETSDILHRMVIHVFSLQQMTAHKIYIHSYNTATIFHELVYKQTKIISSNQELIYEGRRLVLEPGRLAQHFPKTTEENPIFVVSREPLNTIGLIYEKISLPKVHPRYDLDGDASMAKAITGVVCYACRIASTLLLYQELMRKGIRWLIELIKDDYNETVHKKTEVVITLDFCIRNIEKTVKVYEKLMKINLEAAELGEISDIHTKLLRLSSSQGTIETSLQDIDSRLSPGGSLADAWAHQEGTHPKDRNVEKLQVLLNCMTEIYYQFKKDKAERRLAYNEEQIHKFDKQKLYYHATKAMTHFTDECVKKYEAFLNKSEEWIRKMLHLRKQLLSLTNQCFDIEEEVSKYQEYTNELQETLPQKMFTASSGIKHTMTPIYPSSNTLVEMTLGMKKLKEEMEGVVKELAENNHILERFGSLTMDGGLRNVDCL
Method: as §1, §2, §3, §4

[1] = 4hr RT preincubation, read-out: %Remaining activity at 0.5µM NU6300 - 4hr RT preincubation
[2] = usual format, read-out: %Remaining activity at 0.5µM NU6300 - Usual assay format

Sequence of MLK1 (P80192 whole entry): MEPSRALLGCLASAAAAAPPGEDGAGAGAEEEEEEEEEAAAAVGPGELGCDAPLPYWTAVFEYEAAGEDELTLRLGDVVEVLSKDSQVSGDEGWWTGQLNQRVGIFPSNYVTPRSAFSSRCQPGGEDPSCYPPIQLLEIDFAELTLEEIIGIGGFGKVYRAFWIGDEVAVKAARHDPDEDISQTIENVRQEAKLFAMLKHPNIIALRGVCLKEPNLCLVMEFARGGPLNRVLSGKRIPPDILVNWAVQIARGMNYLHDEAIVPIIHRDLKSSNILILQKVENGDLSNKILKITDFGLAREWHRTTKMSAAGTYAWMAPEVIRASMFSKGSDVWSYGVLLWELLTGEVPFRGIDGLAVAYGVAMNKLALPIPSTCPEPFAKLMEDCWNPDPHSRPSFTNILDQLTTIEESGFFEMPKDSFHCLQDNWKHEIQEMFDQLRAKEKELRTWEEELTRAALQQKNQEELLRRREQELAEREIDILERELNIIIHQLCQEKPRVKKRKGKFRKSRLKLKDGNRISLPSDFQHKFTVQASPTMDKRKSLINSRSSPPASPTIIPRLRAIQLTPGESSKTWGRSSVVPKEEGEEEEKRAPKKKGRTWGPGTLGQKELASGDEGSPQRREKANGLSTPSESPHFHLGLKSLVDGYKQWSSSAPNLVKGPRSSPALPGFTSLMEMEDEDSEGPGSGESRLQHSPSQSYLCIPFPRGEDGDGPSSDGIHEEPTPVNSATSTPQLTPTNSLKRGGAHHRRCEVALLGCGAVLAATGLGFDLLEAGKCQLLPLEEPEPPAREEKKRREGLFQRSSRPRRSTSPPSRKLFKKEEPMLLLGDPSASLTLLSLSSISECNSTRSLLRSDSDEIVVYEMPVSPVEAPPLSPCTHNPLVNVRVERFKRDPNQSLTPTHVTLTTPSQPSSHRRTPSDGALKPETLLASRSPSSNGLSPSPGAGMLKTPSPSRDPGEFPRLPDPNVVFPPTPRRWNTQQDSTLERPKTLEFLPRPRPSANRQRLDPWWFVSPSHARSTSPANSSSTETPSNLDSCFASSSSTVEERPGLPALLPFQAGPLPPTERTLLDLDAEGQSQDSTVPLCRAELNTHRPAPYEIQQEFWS

Molecule C=CS(=O)(=O)c1ccc(Nc2nc(OCC3CCCCC3)c3nc[nH]c3n2)cc1 [NU6300, 6-(cyclohexylmethoxy)-N-(4-(vinylsulfonyl)phenyl)-9H-purin-2-amine] has a remaining activity at 0.5 µM (ASK1; [1]) of 102%, a remaining activity at 0.5 µM (ASK1; [2]) of 89% and a remaining activity at 0.5 µM (CDK2-Cyclin A; [1]) of 9%. For the same molecule, the remaining activity at 0.5 µM (CDK2-Cyclin A; [2]) was 26%, the “additional loss of activity after pre-incubation” value (CDK2-Cyclin A; CDK2, 4-hr pre-incubation vs usual format, 0.5 µM) was over 50% and the remaining activity at 0.5 µM (MLK1; [1]) was 29%. For the same molecule, the remaining activity at 0.5 µM (MLK1; [2]) was 4%, the remaining activity at 0.5 µM (TBK1; [1]) was 75% and the remaining activity at 0.5 µM (TBK1; [2]) was 62%.
